From patent publication US20250368633A1, “AZEPINE FUSED RING COMPOUND AS RIPK1 INHIBITOR AND USE THEREOF” (ARTIVILA BIOPHARMA, priority 2022, published 2025)

Columns and labels:
RIPK1 kinase = target: T1, RIPK1 kinase (Homo sapiens, UniProt Q13546); assay: In vitro RIPK1 kinase activity assay (ADP-Glo), inhibition by compounds at 1 μM; assay type: biochemical; conditions: compound 1 μM; ATP 10 μM; MBP substrate 100 μg/mL; read-out: RIPK1 kinase activity inhibition rate range
T1 construct: purchased Promega VA7593
T1 sequence (Q13546 1-671): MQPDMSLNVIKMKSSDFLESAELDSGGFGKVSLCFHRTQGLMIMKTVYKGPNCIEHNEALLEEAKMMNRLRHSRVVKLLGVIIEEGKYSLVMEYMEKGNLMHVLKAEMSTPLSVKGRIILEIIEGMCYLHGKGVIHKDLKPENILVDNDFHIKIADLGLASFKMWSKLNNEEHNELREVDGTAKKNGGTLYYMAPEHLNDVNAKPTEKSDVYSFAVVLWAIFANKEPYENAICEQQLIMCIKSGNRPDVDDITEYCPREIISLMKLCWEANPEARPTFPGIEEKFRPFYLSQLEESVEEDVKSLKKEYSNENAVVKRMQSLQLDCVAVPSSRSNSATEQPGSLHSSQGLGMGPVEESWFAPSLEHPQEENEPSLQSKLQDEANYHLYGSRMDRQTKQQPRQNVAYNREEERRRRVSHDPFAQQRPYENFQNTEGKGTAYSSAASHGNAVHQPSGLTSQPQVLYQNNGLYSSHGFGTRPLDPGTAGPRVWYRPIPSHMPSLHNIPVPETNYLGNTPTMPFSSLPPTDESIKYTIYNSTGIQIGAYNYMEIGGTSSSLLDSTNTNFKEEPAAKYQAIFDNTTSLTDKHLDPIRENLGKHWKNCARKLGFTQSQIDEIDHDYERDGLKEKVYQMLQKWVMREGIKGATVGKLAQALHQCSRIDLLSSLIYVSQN
Description: RIPK1 kinase activity was assayed using the ADP-Glo assay and RIPK1 kinase reaction system (Promega, catalog number: VA7593). The RIPK1 kinase activity assay was performed according to the Promega kit manual.
The experimental method was briefly described as below. The concentration of RIPK1 kinase in the RIPK1 kinase reaction system was determined by kinase titration and S/B10. Compounds were diluted with 1× kinase buffer D (1% DMSO), and 1 μL of 100 μM compound DMSO stock solution was added to 19 μL 1× kinase buffer D. RIPK1 kinase was diluted with 1× kinase buffer D. 2.5×ATP/substrate was diluted with 1× kinase buffer D. The final concentration of ATP in the kinase reaction system was 10 μM, and the final concentration of MBP substrate was 100 μg/mL. 1 μL of diluted compound and 2 μL of diluted RIPK1 kinase were mixed, incubated at room temperature for 15 minutes, 2 μL of 2.5×ATP/substrate was added, mixed, and incubated at room temperature for 1 hour. 5 μL of ADP-Glo reagent was added to each well and incubated at room temperature for 1 hour. 10 μL of ADP detection reagent was added to each well and incubated at room temperature for another 0.5-1 hour. The chemiluminescent signal was read by a microplate reader and the inhibition rate of kinase activity was calculated.

U937 cells [1] = assay: Inhibition rate of compound (1 μM) on necroptosis of U937 cells (TSZ-induced, CellTiter-Glo); assay type: cell-based; conditions: TSZ (hTNF-α, SM-164, Z-VAD-FMK) 20 hours
Description: (§1) The biological activity of RIPK1 inhibitors was further evaluated in the inhibition of necroptosis in U937 cells. U937 cell line was purchased from Huatuo Biotechnology and stored in liquid nitrogen. U937 cells were revived before the experiment and cultured in RPMI-1640 medium (supplemented with 10% fetal bovine serum, 100 U/mL penicillin and 100 μg/mL streptomycin) at 37° C., 5% CO2. The activity was further evaluated by the cellular ATP level detected by the Promega CellTiter-Glo 2.0 Assay cell viability assay kit (Catalog No.: G9242).
The experimental method was briefly described as below. U937 cells in the logarithmic growth phase were collected by centrifugation. Cells were diluted at the density of 5×10^5 cells/mL with RPMI 1640 medium (supplemented with 10% fetal bovine serum, 100 U/mL penicillin and 100 μg/mL streptomycin). The cell suspension was added to a white sterile 384-well cell culture plate at 15 μL/well. The test compound was dissolved in DMSO to prepare a 10 mM stock solution and diluted to 10 μM with culture medium. At the same time, a control with the same DMSO volume was set up. Two replicates were added for each concentration. The diluted compound was added to the 384-well cell culture plate containing cells at 2.5 µL/well and incubated at 37° C., 5% CO2 for 15 minutes. Z-VAD-FMK (Biyuntian, catalog number: C1202-5 mg) was dissolved in DMSO to prepare a 20 mM stock solution. SM-164 (Biyuntian, catalog number: SC0114-10 mM) was dissolved in DMSO to prepare a 10 mM stock solution and diluted to 0.1 mM. hTNF-α (Sino Biological Inc., catalog number: 10602-HNAE) was dissolved in sterile water to 10 μg/mL. RPMI 1640 medium (supplemented with 10% fetal bovine serum, 100 U/mL penicillin and 100 μg/mL streptomycin) was used to prepare the TSZ mixture, containing 133.3 μM Z-VAD-FMK, 33.3 ng/ml hTNF-α and 0.3 μM SM-164. After 15 minutes' coculture of compounds and cells, 7.5 μL of TSZ mixture was added to each well, mixed evenly, and cultured at 37° C., 5% CO2 for 20 hours. After 20 hours, the culture plate was removed and placed at room temperature for 30 minutes. 10 μL of CellTiter-Glo reagent pre-equilibrated at room temperature was added to each well and incubated for 10 minutes from light. The chemiluminescence was read by a microplate reader. The inhibition rate was calculated as Inh %=(1−(no TSZ-TSZ & compound)/(no TSZ-TSZ))×100.

U937 cells [2] = assay: EC50 of necroptosis inhibition in U937 cells (TSZ-induced, CellTiter-Glo); assay type: cell-based; conditions: Homo sapiens, U-937; TSZ (hTNF-α, SM-164, Z-VAD-FMK) 20 hours; 10 concentration points; read-out: EC50 intervals of necroptosis inhibition in U937 cells
Description: as §1
The experimental method was briefly described as below. U937 cells in the logarithmic growth phase were collected by centrifugation. Cells were diluted to the cell density of 5×10^5 cells/mL with RPMI 1640 medium (supplemented with 10% fetal bovine serum, 100 U/mL penicillin and 100 μg/mL streptomycin). Cell suspension was added to a white sterile 384-well cell culture plate at 15 μL/well. The test compound was dissolved in DMSO to prepare a 10 mM stock solution. The compound was serially diluted with culture medium at a ratio of 1:3, for a total of 10 concentration points. A control with the same DMSO volume was set, with two replicates for each concentration. The diluted compound was added to the 384-well cell culture plate containing cells at 2.5 μL/well and incubated at 37° C., 5% CO2 for 15 minutes. Z-VAD-FMK (Biyuntian, catalog number: C1202-5 mg) was dissolved in DMSO to prepare a 20 mM stock solution. SM-164 (Biyuntian, catalog number: SC0114-10 mM) was dissolved in DMSO to prepare a 10 mM stock solution and diluted to 0.1 mM. hTNF-α (Sino Biological Inc., catalog number: 10602-HNAE) was dissolved in sterile water to 10 μg/mL. RPMI 1640 medium (supplemented with 10% fetal bovine serum, 100 U/mL penicillin and 100 μg/mL streptomycin) was used to prepare the TSZ mixture, containing 133.3 μM Z-VAD-FMK, 33.3 ng/ml hTNF-α and 0.3 μM SM-164. After 15 minutes' coculture of compounds and cells, 7.5 μL of TSZ mixture was added to each well, mixed evenly, and cultured at 37° C., 5% CO2 for 20 hours. After 20 hours, the culture plate was removed and placed at room temperature for 30 minutes. Then, 10 μL of CellTiter-Glo reagent pre-equilibrated at room temperature was added to each well and incubated. After 10 minutes' incubation at room temperature in the dark, the chemiluminescence were measured using a microplate reader. The inhibition rate was calculated as Inh %=(1−(no TSZ-TSZ & compound)/(no TSZ-TSZ))×100. The EC50 was obtained by fitting the nonlinear regression curve log [inhibitor] vs. response−variable slope (four parameters) in GraphPad Prism.

Structure (SMILES) | inhibition at 1 µM (RIPK1 kinase) [%] | Inhibition rate range of compounds (1 μM) on U937 cell necroptosis (U937 cells [1]) | EC50 (U937 cells [2]) [µM]
CN1C(=O)[C@@H](NC(=O)C(=O)NCCc2ccccc2)COc2ccc(C#Cc3ccncc3)cc21 [Example 12, (S)-N^1-(5-methyl-4-oxo-7-(pyridin-4-ylethynyl)-2,3,4,5-tetrahydrobenzo[b][1,4]oxazepin-3-yl)-N^2-phenethyloxalamide] | ≥ 75 | A (A: ≥90%) | < 0.1
CN1C(=O)[C@@H](NC(=O)C(=O)NCCc2ccccc2)COc2ccc(C#Cc3ccccn3)cc21 [Example 14, (S)—N^1-(5-methyl-4-oxo-7-(pyridin-2-ylethynyl)-2,3,4,5-tetrahydrobenzo[b][1,4]oxazepin-3-yl)-N^2-phenethyloxalamide] | ≥ 75 | A (A: ≥90%) | < 0.1
CN1C(=O)[C@@H](NC(=O)C(=O)NCCc2ccccc2)COc2ccc(C#Cc3cncnc3)cc21 [Example 15, (S)—N^1-(5-methyl-4-oxo-7-(pyrimidin-5-ylethynyl)-2,3,4,5-tetrahydrobenzo[b][1,4]oxazepin-3-yl)-N^2-phenethyloxalamide] | ≥ 75 | A (A: ≥90%) | < 0.1
CN1C(=O)[C@@H](NC(=O)C(=O)NCCc2ccccc2)COc2ccc(C#Cc3cccs3)cc21 [Example 16, (S)—N^1-(5-methyl-4-oxo-7-(thiophen-2-ylethynyl)-2,3,4,5-tetrahydrobenzo[b][1,4]oxazepin-3-yl)-N^2-phenethyloxalamide] | 50 to 74 | A (A: ≥90%) | < 0.1
C#Cc1ccc2c(c1)N(C)C(=O)[C@@H](NC(=O)C(=O)NCCc1ccccc1)CO2 [Example 20, (S)—N^1-(7-ethynyl-5-methyl-4-oxo-2,3,4,5-tetrahydrobenzo[b][1,4]oxazepin-3-yl)-N^2-phenethyloxalamide] | 50 to 74 | A (A: ≥90%) | < 0.1
CN1C(=O)[C@@H](NC(=O)C(=O)NCCc2ccccc2)COc2ccc(C#CC3CCNCC3)cc21 [Example 23, (S)—N^1-(5-methyl-4-oxo-7-(piperidin-4-ylethynyl)-2,3,4,5-tetrahydrobenzo[b][1,4]oxazepin-3-yl)-N^2-phenethyloxalamide] | 50 to 74 | A (A: ≥90%) | < 0.1
CN1C(=O)[C@@H](NC(=O)C(=O)NCCc2ccccc2)COc2ccc(C#CC3=CCCCC3)cc21 [Example 26, (S)—N^1-(7-(cyclohex-1-en-1-ylethynyl)-5-methyl-4-oxo-2,3,4,5-tetrahydrobenzo[b][1,4]oxazepin-3-yl)-N^2-phenethyloxalamide] | ≥ 75 | A (A: ≥90%) | < 0.1
CN1C(=O)[C@@H](NC(=O)C(=O)NCCc2ccccc2)COc2ccc(C#Cc3cc(F)cc(F)c3)cc21 [Example 27, (S)—N^1-(7-((3,5-difluorophenyl)ethynyl)-5-methyl-4-oxo-2,3,4,5-tetrahydrobenzo[b][1,4]oxazepin-3-yl)-N^2-phenethyloxalamide] | 50 to 74 | A (A: ≥90%) | < 0.1

Second part, led by results:

inhibition at 1 µM (RIPK1 kinase) [%] | Structure (SMILES) | Inhibition rate range of compounds (1 μM) on U937 cell necroptosis (U937 cells [1]) | EC50 (U937 cells [2]) [µM]
≥ 75 | CN1C(=O)[C@@H](NC(=O)C(=O)NCCc2ccccc2)COc2ccc(C#CCOc3ccccc3)cc21 [Example 28, (S)—N^1-(5-methyl-4-oxo-7-(3-phenyloxyprop-1-yn-1-yl)-2,3,4,5-tetrahydrobenzo[b][1,4]oxazepin-3-yl)-N^2-phenethyloxalamide] | A (A: ≥90%) | < 0.1
50 to 74 | C[C@H](O)C#Cc1ccc2c(c1)N(C)C(=O)[C@@H](NC(=O)C(=O)NCCc1ccccc1)CO2 [Example 30, N^1-((S)-7-((S)-3-hydroxybut-1-yn-1-yl)-5-methyl-4-oxo-2,3,4,5-tetrahydrobenzo[b][1,4]oxazepin-3-yl)-N^2-phenethyloxalamide] | A (A: ≥90%) | 0.1 to 0.5
50 to 74 | CN1C(=O)[C@@H](NC(=O)C(=O)NCc2ccccc2F)COc2ccc(C#CCCO)cc21 [Example 38, (S)—N^1-(2-fluorobenzyl)-N^2-(7-(4-hydroxybut-1-yn-1-yl)-5-methyl-4-oxo-2,3,4,5-tetrahydrobenzo[b][1,4]oxazepin-3-yl)oxalamide] | A (A: ≥90%) | 0.1 to 0.5
